Reference: PMC3871589, “Evaluation of STAT3 Signaling in ALDH+ and ALDH+/CD44+/CD24− Subpopulations of Breast Cancer Cells” (PLoS ONE, 2013)

What was measured:
[1] = system: ALDH+ subpopulation in MDA-MB-231, SUM159, and SK-BR3 cancer cells; assay: ALDEFLUOR assay, percentage of ALDH+ subpopulation; assay type: cell-based, human; settings: un-separated MDA-MB-231, SUM159, SK-BR3; LLL12 5 µmol/L or Stattic 10 µM, 24 hours
Procedure: (§1) The ALDEFLUOR kit (StemCell Technologies) was used to isolate the population with high ALDH enzymatic activity as previously described. Briefly, cells were trypsinized to single cells using 0.05% trypsin and subsequently suspended in ALDEFLUOR assay buffer containing ALDH substrate (BAAA, 1 µmol/l per 1×10^6 cells) and then incubated for 40 minutes at 37°C. For each sample, an aliquot of cells was stained under identical conditions with 15 mmol/L diethylaminobenzaldehyde (DEAB), a specific ALDH inhibitor, as an ALDH^− control. Anti-human PE-CD24 and PE-Cy5-CD44 antibody (BioLegend) were used for CD44/CD24 identification and to separate ALDH^+/CD44^+/CD24^− and ALDH^−/CD44^+/CD24^+ cells when combined with ALDH staining. Analysis was performed using a FACStarPLUS (Becton Dickinion) flow cytometer. To assess the effect of STAT3 inhibitors on the subpopulation of ALDH^+ cells, un-separated breast cancer cells were treated with 5 µmol/L of LLL12 or 10 µmol/L Stattic for 24 hours prior to performing the ALDEFLUOR assay.

EGFR = EGFR (Homo sapiens, UniProt P00533); assay: Kinase profiler assay, EGFR; assay type: biochemical; settings: bound stated jointly for the other protein kinases; Table S3
Procedure: (§2) The effects of LLL12 on twenty six purified human protein kinases were performed at the Millipore UK Limited (Dundee, UK) and Reaction Biology Corp. (Malvern, PA) using the Kinase profiler assay. Assays contained a peptide substrate, purified recombinant human protein kinases to be tested, and gamma-labeled ATP, magnesiumion. Radioactive phosphorylated product was measured and quantitated via a scintillation counter.

[2] = system: STAT3 phosphorylation (Y705); assay: Western blot of STAT3 phosphorylation in ALDH+ cells; assay type: cell-based, human; settings: LLL12 5 µmol/L or Stattic 10 µmol/L 24 hours, ShRNA 48 hours then puromycin
Procedure: as §1
(§3) After sorting by flow cytometry, ALDH^+ and ALDH^+/CD44^+/CD24^− stem-like cells were cultured in serum-free stem cell medium in ultra-low attachment six-well plates (Corning) to maintain cancer stem cell characteristics. […]

[3] = system: mTOR and AKT phosphorylation; assay: mTOR and AKT phosphorylation in ALDH+ cells; assay type: cell-based, human; settings: ALDH+ subpopulation, all three cell lines; 5 µmol/L, 24 hours
Procedure: (§4) After sorting by flow cytometry, ALDH^+ and ALDH^+/CD44^+/CD24^− stem-like cells were cultured in serum-free stem cell medium in ultra-low attachment six-well plates (Corning) to maintain cancer stem cell characteristics. ALDH^−, ALDH^−/CD44^+/CD24^+cells and un-separated cells were cultured in regular medium and replaced with identical stem cell medium for three days before being harvested. To assess the effects of STAT3 inhibitors, ALDH^+ and ALDH^+/CD44^+/CD24^− subpopulations of breast cancer cells were treated with LLL12 (5 µmol/L) of or static (10 µmol/L) for 24 hours. STAT3, or control GFP shRNA lentivirus (CTL ShRNA) was introduced into ALDH^+ breast cancer stem-like cells for 48 hours, then followed by selection with puromycin (0.2 µg/ml) for 72 hours. Antibodies (Cell Signaling Tech.) against phospho-specific STAT3 (Tyrosine 705) (P-STAT3, Y705), ERK1/2 (Threonine 202/Tyrosine 204), cleaved Poly (ADP-ribose) polymerase (PARP), ALDH1, cleaved caspase-3, and GAPDH were used for western blots.

Fyn = Fyn (Homo sapiens, UniProt P06241); assay: Kinase profiler assay, Fyn; assay type: biochemical; settings: 10 concentrations, 100 µM highest; Table S3
Procedure: as §2

[4] = system: STAT3 phosphorylation (Y705); assay: Western blot of STAT3 phosphorylation in un-separated breast cancer cells; assay type: cell-based, human; settings: un-separated MDA-MB-231, SK-BR-3, SUM159 cells, 10 µM, 24 hours
Procedure: as §4
(§5) LLL12 was synthesized in Dr. Pui-Kai Li’s laboratory (College of Pharmacy, The Ohio State University). Un-separated cells were treated with 10 µM of LLL12 or DMSO for 24 hours, and the phosphorylation of STAT3 (Y705), and ERK 1/2 (T202/Y204), and expression of STAT3 downstream genes, cleaved caspase-3, and PARP were detected by Western blots. (JPG) Click here for additional data file.

STAT3 target genes = assay: RT-PCR of STAT3 downstream target genes in ALDH+ cells; assay type: cell-based, human; settings: 5 µM, 24 h
Procedure: The ALDH^+ and ALDH^+/CD44^+/CD24^− subpopulations of breast cancer cells were treated with LLL12 (5 µM) or DMSO for 24 h. RNA from the cells was then collected using RNeasy Kits (Qiagen). cDNA was constructed from a 500 ng sample of RNA using Omniscript RT (Qiagen). Primer sequences and source information can be found in Table S1. The intensity of bands was quantified and normalized to GAPDH.

[5] = system: ALDH+/CD44+/CD24− subpopulation of MDA-MB-231 and SUM159; assay: Caspase-3 cleavage in ALDH+/CD44+/CD24− cells; assay type: cell-based, human; settings: 0.5–5 µM
Procedure: as §1, §3

[6] = system: SUM159 ALDH+ breast cancer stem-like cells; assay: Mouse mammary fat pad model with SUM159 ALDH+ cells; assay type: in vivo, NOD/SCID mice; settings: 5 mg/kg IP daily
Procedure: For mammary fat pad experiments, 1×10^5 of sorted SUM159 ALDH^+ cells, assessed using Aldefluor kit (StemCell Technologies) were injected into the humanized fat pads of NOD/SCID mice (The Jackson Laboratory), as previously described [5]. […] Tumors were measured by a caliper and the volume was calculated using V = π (width^2×length)/6. After 15 days of treatments with LLL12 or vehicle control, tumors were harvested from euthanized mice, snap-frozen in liquid nitrogen, and stored in −80°C. […] The rest of tumors tissues were homogenized to examine the expression of STAT3 phosphorylation by western blot.

STAT3 phosphorylation = assay: Western blot of STAT3 phosphorylation in ALDH+/CD44+/CD24− cells; assay type: cell-based, human; settings: ALDH+/CD44+/CD24− subpopulation of MDA-MB-231 and SUM159; 0.5–5 µM
Procedure: as §1, §3

PDK1 = PDK1 (Homo sapiens, UniProt O15530); assay: Kinase profiler assay, PDK1; assay type: biochemical; settings: bound stated jointly for the other protein kinases; Table S3
Procedure: as §2

c-SRC = c-SRC (Homo sapiens, UniProt P12931); assay: Kinase profiler assay, c-SRC; assay type: biochemical; settings: 10 concentrations, 100 µM highest; Table S3
Procedure: as §2

[7] = system: ALDH+ subpopulation from MDA-MB-231, SUM159, and SK-BR3 cells; assay: MTT cell viability assay, ALDH+ subpopulation; assay type: cell-based, human; settings: 1 to 10 µmol/L 72 hours, ShRNA 48 hours
Procedure: The breast cancer cells were seeded in 96-well plates (3,000 cells/well) in triplicates in a serum-free mammary epithelial basal medium. The following day, cancer cells were treated with 1 to 10 µmol/L of LLL12 or Stattic for 72 hours, STAT3 ShRNA or control GFP shRNA lentivirus (CTL ShRNA) for 48 hours. MTT (Thiazolyl Blue Tetrazolium Bromide, Sigma-Aldrich) assay was used to determine the cell viability.

[8] = system: MDA-MB-231, SK-BR-3, and SUM159 breast cancer cell lines; assay: Apoptosis (cleaved PARP and Caspase-3) in un-separated breast cancer cells; assay type: cell-based, human; settings: un-separated MDA-MB-231, SK-BR-3, SUM159 cells; 10 µM, 24 hours
Procedure: as §4, §5

PYK2 = PYK2 (Homo sapiens, UniProt Q14289); assay: Kinase profiler assay, PYK2; assay type: biochemical; settings: 10 concentrations, 100 µM highest; Table S3
Procedure: as §2

EGFR, sequence (P00533 25-1210): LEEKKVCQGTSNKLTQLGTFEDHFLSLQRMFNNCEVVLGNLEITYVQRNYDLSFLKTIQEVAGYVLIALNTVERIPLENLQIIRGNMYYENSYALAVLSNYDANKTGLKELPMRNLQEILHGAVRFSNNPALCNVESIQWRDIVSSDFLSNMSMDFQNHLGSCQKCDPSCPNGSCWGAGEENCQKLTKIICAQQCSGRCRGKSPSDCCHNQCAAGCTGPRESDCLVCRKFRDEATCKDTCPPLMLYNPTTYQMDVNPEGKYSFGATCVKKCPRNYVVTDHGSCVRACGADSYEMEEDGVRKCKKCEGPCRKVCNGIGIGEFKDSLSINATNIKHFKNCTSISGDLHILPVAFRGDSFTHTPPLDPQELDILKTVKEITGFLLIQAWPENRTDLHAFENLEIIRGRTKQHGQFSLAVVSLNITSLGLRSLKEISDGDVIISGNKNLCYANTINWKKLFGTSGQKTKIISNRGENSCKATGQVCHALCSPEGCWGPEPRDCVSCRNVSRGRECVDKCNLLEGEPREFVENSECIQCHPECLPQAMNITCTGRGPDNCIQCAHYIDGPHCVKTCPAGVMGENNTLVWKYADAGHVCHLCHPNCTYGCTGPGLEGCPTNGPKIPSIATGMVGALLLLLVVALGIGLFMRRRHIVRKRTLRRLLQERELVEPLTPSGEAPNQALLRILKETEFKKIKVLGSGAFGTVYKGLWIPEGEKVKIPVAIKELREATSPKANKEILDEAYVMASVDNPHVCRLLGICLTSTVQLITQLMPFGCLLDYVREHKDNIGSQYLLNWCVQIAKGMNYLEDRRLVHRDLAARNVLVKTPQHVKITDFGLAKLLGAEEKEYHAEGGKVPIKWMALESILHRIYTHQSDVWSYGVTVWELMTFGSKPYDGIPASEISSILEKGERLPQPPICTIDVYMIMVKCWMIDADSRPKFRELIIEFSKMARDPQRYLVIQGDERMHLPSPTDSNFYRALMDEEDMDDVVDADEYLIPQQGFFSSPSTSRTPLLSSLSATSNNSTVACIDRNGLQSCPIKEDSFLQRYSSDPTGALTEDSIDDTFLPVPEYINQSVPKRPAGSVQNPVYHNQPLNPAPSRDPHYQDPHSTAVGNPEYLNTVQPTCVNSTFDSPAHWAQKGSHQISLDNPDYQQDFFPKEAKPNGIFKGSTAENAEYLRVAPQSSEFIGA
PDK1, sequence (O15530 whole entry): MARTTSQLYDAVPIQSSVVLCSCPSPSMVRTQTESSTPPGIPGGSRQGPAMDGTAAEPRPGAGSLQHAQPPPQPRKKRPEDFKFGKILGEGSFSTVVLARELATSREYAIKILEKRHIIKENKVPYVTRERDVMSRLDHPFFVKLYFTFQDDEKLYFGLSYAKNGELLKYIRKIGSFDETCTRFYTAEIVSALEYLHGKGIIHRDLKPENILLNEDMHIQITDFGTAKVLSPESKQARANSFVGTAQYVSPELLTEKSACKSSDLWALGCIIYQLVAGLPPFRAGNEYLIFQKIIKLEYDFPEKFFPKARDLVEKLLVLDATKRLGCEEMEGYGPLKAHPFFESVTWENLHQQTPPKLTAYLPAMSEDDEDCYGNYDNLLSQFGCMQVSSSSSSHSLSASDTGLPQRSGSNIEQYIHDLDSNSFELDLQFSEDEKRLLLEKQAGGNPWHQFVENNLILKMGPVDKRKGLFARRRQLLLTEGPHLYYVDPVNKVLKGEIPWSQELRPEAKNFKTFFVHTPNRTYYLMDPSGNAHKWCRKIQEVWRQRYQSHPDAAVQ
Fyn, sequence (P06241 whole entry): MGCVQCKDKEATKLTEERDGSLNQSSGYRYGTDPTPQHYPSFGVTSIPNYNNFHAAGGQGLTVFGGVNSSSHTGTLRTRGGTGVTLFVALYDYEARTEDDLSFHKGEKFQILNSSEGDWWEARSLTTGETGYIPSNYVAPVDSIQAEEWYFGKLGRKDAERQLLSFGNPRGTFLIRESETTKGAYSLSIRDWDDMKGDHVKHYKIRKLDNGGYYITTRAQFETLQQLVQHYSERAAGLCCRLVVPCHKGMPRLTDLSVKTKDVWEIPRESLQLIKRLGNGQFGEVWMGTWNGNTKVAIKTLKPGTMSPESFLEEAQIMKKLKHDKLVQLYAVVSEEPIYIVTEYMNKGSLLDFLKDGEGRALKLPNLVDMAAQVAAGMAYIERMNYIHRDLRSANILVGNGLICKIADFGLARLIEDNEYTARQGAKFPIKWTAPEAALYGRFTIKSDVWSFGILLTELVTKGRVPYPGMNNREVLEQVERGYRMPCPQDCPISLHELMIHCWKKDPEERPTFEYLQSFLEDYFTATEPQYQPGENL
PYK2, sequence (Q14289 whole entry): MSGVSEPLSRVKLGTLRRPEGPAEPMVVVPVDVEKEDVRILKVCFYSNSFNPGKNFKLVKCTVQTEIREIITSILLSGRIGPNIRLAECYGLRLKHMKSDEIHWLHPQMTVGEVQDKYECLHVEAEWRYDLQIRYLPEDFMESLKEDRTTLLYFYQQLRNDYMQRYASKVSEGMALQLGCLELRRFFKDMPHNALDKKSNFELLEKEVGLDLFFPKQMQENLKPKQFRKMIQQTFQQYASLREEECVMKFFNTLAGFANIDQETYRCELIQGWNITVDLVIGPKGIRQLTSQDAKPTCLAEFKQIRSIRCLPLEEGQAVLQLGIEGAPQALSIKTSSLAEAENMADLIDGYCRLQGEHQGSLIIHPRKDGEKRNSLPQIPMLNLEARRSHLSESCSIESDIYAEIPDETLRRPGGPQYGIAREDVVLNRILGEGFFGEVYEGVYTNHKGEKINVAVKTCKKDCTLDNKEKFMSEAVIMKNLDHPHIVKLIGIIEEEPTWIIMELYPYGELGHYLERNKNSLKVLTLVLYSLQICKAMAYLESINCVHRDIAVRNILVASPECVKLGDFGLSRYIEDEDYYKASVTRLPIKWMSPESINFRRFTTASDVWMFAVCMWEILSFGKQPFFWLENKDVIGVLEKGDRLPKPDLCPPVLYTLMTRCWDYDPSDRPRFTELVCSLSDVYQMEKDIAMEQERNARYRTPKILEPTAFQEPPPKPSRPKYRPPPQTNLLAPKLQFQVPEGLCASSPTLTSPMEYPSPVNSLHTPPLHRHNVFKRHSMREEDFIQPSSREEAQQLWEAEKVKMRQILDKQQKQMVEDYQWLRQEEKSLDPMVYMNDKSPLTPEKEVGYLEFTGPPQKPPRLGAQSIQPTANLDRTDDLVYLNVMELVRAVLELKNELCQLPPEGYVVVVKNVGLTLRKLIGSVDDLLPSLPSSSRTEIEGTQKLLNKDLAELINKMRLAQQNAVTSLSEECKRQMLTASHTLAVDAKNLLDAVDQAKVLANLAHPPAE
c-SRC, sequence (P12931 whole entry): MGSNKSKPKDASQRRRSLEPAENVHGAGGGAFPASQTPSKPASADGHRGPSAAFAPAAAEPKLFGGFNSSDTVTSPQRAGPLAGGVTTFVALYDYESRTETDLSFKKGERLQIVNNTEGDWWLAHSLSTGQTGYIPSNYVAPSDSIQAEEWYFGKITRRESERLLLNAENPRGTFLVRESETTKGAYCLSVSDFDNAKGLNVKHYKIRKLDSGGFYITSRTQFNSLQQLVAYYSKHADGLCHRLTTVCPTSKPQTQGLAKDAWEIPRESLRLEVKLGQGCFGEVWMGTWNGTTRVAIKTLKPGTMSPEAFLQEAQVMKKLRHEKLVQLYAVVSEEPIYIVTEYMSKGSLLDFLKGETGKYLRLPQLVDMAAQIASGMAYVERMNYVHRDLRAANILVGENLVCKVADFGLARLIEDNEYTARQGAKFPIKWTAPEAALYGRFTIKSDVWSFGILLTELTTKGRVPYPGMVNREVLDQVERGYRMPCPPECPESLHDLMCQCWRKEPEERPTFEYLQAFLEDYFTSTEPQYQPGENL

NS(=O)(=O)c1cccc2c1C(=O)c1cccc(O)c1C2=O [LLL12] was tested, and the “ALDH+ subpopulation (percentage)” value [1] was “decrease”, the IC50 (EGFR) was ≥ 77.9 µM and the “STAT3 phosphorylation in ALDH+ cells” value [2] was “inhibited”. For the same compound, the “mTOR and AKT phosphorylation” value [3] was “almost no effect”, the IC50 (Fyn) was > 100 µM and the STAT3 phosphorylation [4] was “inhibited”. For the same compound, the “expression of STAT3 target genes Cyclin D1, survivin, Bcl-2, Bcl-XL, MMP-2, and MMP-9” value (STAT3 target genes; ALDH+ breast cancer cells) was “down-regulated”, the “Twist1, Notch-1, and Notch-3 expression” value (STAT3 target genes; ALDH+ breast cancer stem-like cells) was “inhibited” and the caspase-3 cleavage [5] was “induced caspase-3 cleavage”. The “STAT3 phosphorylation in tumor” value [6] was “significant suppresses”, the tumor mass ([6]; 15 days, P<0.05) was “significant suppresses” and the tumor volume ([6]; 15 days, P<0.05) was “significant suppresses”. The STAT3 phosphorylation (STAT3 phosphorylation) was “inhibited”, the IC50 (PDK1) was ≥ 77.9 µM and the IC50 (c-SRC) was > 100 µM. For the same compound, the “cell viability of the ALDH+ subpopulation” value [7] was “inhibit”, the “apoptosis (cleaved PARP and Caspase-3)” value [8] was “induced apoptosis” and the IC50 (PYK2) was > 100 µM.
